In PubChem BioAssay AID318 (DTP/NCI, 2004):
Where “and” joins values, the source holds several entries; their conditions need not be identical. Identical values can stand only once. Toxic doses and inconclusive results are not listed.

Tested on: BDF1 mice, P815 leukemia ip, survival T/C
Experiment: NCI In Vivo Anticancer Drug Screen. Data for tumor model P815 Mast Cell Leukemia (Ascitic) (intraperitoneal) in B6D2F1 (BDF1) mice
Settings: higher = longer survival
Experimental: The antitumor activity of compounds was measured in mice bearing transplantable tumors. Survival or tumor size were measured and the results are expressed as the measurement made in the treated group (T) divided by the measurement made in the vehicle treated control group (C). The tumor model used in this assay is P815 Mast Cell Leukemia (Ascitic) (intraperitoneal) in B6D2F1 (BDF1) mice

[1] = endpoint: survival time, mean or median, dose: 10.0 mg/kg/injection, schedule: Q01DX010 (ip), vehicle: saline
[2] = endpoint: survival time, mean or median, dose: 20.0 mg/kg/injection, schedule: Q01DX010 (ip), vehicle: saline
[3] = endpoint: survival time, mean or median, dose: 40.0 mg/kg/injection, schedule: Q01DX010 (ip), vehicle: saline
[4] = endpoint: survival time, mean or median, dose: 6.25 mg/kg/injection, schedule: Q01DX010 (ip), vehicle: saline
[5] = endpoint: survival time, mean or median, dose: 12.5 mg/kg/injection, schedule: Q01DX010 (ip), vehicle: saline
[6] = endpoint: survival time, mean or median, dose: 25.0 mg/kg/injection, schedule: Q01DX010 (ip), vehicle: saline
[7] = endpoint: survival time, mean or median, dose: 50.0 mg/kg/injection, schedule: Q01DX010 (ip), vehicle: saline
[8] = endpoint: survival time, mean or median, dose: 100.0 mg/kg/injection, schedule: Q01DX010 (ip), vehicle: saline
[9] = endpoint: survival time, mean or median, dose: 200.0 mg/kg/injection, schedule: Q01DX010 (ip), vehicle: saline
[10] = endpoint: survival time, mean or median, dose: 10.0 mg/kg/injection, schedule: Q01DX015 (ip), vehicle: carboxymethylcellulose (CMC)
[11] = endpoint: survival time, mean or median, dose: 20.0 mg/kg/injection, schedule: Q01DX015 (ip), vehicle: carboxymethylcellulose (CMC)

O=c1[nH]c(=O)n(C2CC(O)C(CO)O2)cc1F (stereo unspecified)
T/C (endpoint: survival time, mean or median, dose: 5.0 mg/kg/injection, schedule: Q01DX010 (ip), vehicle: saline): 100 % of control | T/C [1]: 100 % of control and 105 % of control | T/C [2]: 111 % of control and 116 % of control | T/C [3]: 111 % of control

O=NN(CCCl)C(=O)NCCCl
T/C [4]: 245 % of control and 263 % of control | T/C [5]: 159 % of control

N=C(N)c1ccc(Nc2ccc(C(=N)N)cc2)cc1
T/C (endpoint: survival time, mean or median, dose: 3.0 mg/kg/injection, schedule: Q01DX010 (ip), vehicle: saline): 94 % of control and 100 % of control | T/C (endpoint: survival time, mean or median, dose: 6.0 mg/kg/injection, schedule: Q01DX010 (ip), vehicle: saline): 100 % of control | T/C (endpoint: survival time, mean or median, dose: 12.0 mg/kg/injection, schedule: Q01DX010 (ip), vehicle: saline): 88 % of control and 100 % of control | T/C (endpoint: survival time, mean or median, dose: 24.0 mg/kg/injection, schedule: Q01DX010 (ip), vehicle: saline): 87 % of control

O=C(Nc1ccc(C2=NCCN2)cc1)c1cc(Cl)cc(C(=O)Nc2ccc(C3=NCCN3)cc2)c1
T/C (endpoint: survival time, mean or median, dose: 140.0 mg/kg/injection, schedule: Q01DX010 (ip), vehicle: saline): 91 % of control | T/C (endpoint: survival time, mean or median, dose: 210.0 mg/kg/injection, schedule: Q01DX010 (ip), vehicle: saline): 95 % of control | T/C (endpoint: survival time, mean or median, dose: 315.0 mg/kg/injection, schedule: Q01DX010 (ip), vehicle: saline): 86 % of control | T/C (endpoint: survival time, mean or median, dose: 473.0 mg/kg/injection, schedule: Q01DX010 (ip), vehicle: saline): 91 % of control

C(CC1CO1)C1CO1 (stereo unspecified)
T/C (endpoint: survival time, mean or median, dose: 40.0 mg/kg/injection, schedule: Q01DX015 (ip), vehicle: saline): 150 % of control | T/C (endpoint: survival time, mean or median, dose: 60.0 mg/kg/injection, schedule: Q01DX015 (ip), vehicle: saline): 172 % of control

O=C(O)CC(NC(=O)CP(=O)(O)O)C(=O)O (stereo unspecified)
T/C (endpoint: median survival time, dose: 62.2 mg/kg/injection, schedule: Q04DX003 (ip), vehicle: saline): 99 % of control | T/C (endpoint: median survival time, dose: 104.0 mg/kg/injection, schedule: Q04DX003 (ip), vehicle: saline): 99 % of control | T/C (endpoint: median survival time, dose: 173.0 mg/kg/injection, schedule: Q04DX003 (ip), vehicle: saline): 97 % of control | T/C (endpoint: median survival time, dose: 288.0 mg/kg/injection, schedule: Q04DX003 (ip), vehicle: saline): 107 % of control | T/C (endpoint: median survival time, dose: 480.0 mg/kg/injection, schedule: Q04DX003 (ip), vehicle: saline): 92 % of control

O=C(Nc1ccc(C2=NCCN2)cc1)c1ccc(C(=O)Nc2ccc(C3=NCCN3)cc2)c(NC(=O)c2ccc(C(=O)Nc3cc(C(=O)Nc4ccc(C5=NCCN5)cc4)ccc3C(=O)Nc3ccc(C4=NCCN4)cc3)cc2)c1
T/C [6]: 95 % of control | T/C [7]: 108 % of control | T/C [8]: 95 % of control | T/C [9]: 104 % of control

Cc1cc2nc3c(=O)[nH]c(=O)nc-3n(CC(O)C(O)C(O)C(O)CO)c2cc1C (stereo unspecified)
T/C [7]: 100 % of control | T/C [8]: 100 % of control | T/C [9]: 88 % of control and 100 % of control | T/C (endpoint: survival time, mean or median, dose: 400.0 mg/kg/injection, schedule: Q01DX010 (ip), vehicle: saline): 88 % of control

CC(Cl)CN(Cc1cc(O)c(CN(CC(C)Cl)CC(C)Cl)cc1O)CC(C)Cl (stereo unspecified)
T/C (endpoint: survival time, mean or median, dose: 62.5 mg/kg/injection, schedule: Q01DX015 (ip), vehicle: carboxymethylcellulose (CMC)): 114 % of control | T/C (endpoint: survival time, mean or median, dose: 125.0 mg/kg/injection, schedule: Q01DX015 (ip), vehicle: carboxymethylcellulose (CMC)): 99 % of control | T/C (endpoint: survival time, mean or median, dose: 250.0 mg/kg/injection, schedule: Q01DX015 (ip), vehicle: carboxymethylcellulose (CMC)): 122 % of control | T/C (endpoint: survival time, mean or median, dose: 500.0 mg/kg/injection, schedule: Q01DX015 (ip), vehicle: carboxymethylcellulose (CMC)): 124 % of control

CCCCN(CCCC)CCCCCN
T/C (endpoint: survival time, mean or median, dose: 5.0 mg/kg/injection, schedule: Q01DX015 (ip), vehicle: carboxymethylcellulose (CMC)): 111 % of control | T/C [10]: 103 % of control | T/C [11]: 104 % of control | T/C (endpoint: survival time, mean or median, dose: 30.0 mg/kg/injection, schedule: Q01DX015 (ip), vehicle: carboxymethylcellulose (CMC)): 105 % of control

COc1ccc(C[n+]2cc([O-])on2)cc1
T/C (endpoint: survival time, mean or median, dose: 12.5 mg/kg/injection, schedule: Q01DX015 (ip), vehicle: carboxymethylcellulose (CMC)): 111 % of control | T/C (endpoint: survival time, mean or median, dose: 25.0 mg/kg/injection, schedule: Q01DX015 (ip), vehicle: carboxymethylcellulose (CMC)): 114 % of control | T/C (endpoint: survival time, mean or median, dose: 100.0 mg/kg/injection, schedule: Q01DX015 (ip), vehicle: carboxymethylcellulose (CMC)): 107 % of control

NC(=O)c1[nH]nc(C2OC(CO)C(O)C2O)c1O (stereo unspecified)
T/C (endpoint: median survival time, dose: 1.56 mg/kg/injection, schedule: Q04DX003 (ip), vehicle: saline): 102 % of control | T/C (endpoint: median survival time, dose: 2.59 mg/kg/injection, schedule: Q04DX003 (ip), vehicle: saline): 104 % of control | T/C (endpoint: median survival time, dose: 4.32 mg/kg/injection, schedule: Q04DX003 (ip), vehicle: saline): 103 % of control | T/C (endpoint: median survival time, dose: 7.2 mg/kg/injection, schedule: Q04DX003 (ip), vehicle: saline): 121 % of control | T/C (endpoint: median survival time, dose: 12.0 mg/kg/injection, schedule: Q04DX003 (ip), vehicle: saline): 114 % of control | T/C (endpoint: median survival time, dose: 20.0 mg/kg/injection, schedule: Q04DX003 (ip), vehicle: saline): 104 % of control

c1ccc(CNc2ncnc3[nH]ncc23)cc1
T/C (endpoint: survival time, mean or median, dose: 8.0 mg/kg/injection, schedule: Q01DX010 (ip), vehicle: saline): 100 % of control and 109 % of control | T/C (endpoint: survival time, mean or median, dose: 16.0 mg/kg/injection, schedule: Q01DX010 (ip), vehicle: saline): 100 % of control | T/C (endpoint: survival time, mean or median, dose: 32.0 mg/kg/injection, schedule: Q01DX010 (ip), vehicle: saline): 109 % of control | T/C (endpoint: survival time, mean or median, dose: 64.0 mg/kg/injection, schedule: Q01DX010 (ip), vehicle: saline): 95 % of control and 109 % of control

COc1cc([C@@H]2c3cc4c(cc3[C@H](O)[C@H]3COC(=O)[C@@H]23)OCO4)cc(OC)c1OC
T/C [10]: 112 % of control | T/C [11]: 150 % of control | T/C (endpoint: survival time, mean or median, dose: 40.0 mg/kg/injection, schedule: Q01DX015 (ip), vehicle: carboxymethylcellulose (CMC)): 167 % of control

CC[C@]1(O)C[C@H]2CN(CCc3c([nH]c4ccccc34)[C@@](C(=O)OC)(c3cc4c(cc3OC)N(C=O)[C@H]3[C@@](O)(C(=O)OC)[C@H](OC(C)=O)[C@]5(CC)C=CCN6CC[C@]43[C@@H]65)C2)C1
T/C (endpoint: survival time, mean or median, dose: 0.09 mg/kg/injection, schedule: Q01DX015 (ip), vehicle: carboxymethylcellulose (CMC)): 185 % of control | T/C (endpoint: survival time, mean or median, dose: 0.13 mg/kg/injection, schedule: Q01DX015 (ip), vehicle: carboxymethylcellulose (CMC)): 183 % of control | T/C (endpoint: survival time, mean or median, dose: 0.2 mg/kg/injection, schedule: Q01DX015 (ip), vehicle: carboxymethylcellulose (CMC)): 213 % of control | T/C (endpoint: survival time, mean or median, dose: 0.2 mg/kg/injection, schedule: Q01DX015 (ip), vehicle: saline): 107 % of control | T/C (endpoint: survival time, mean or median, dose: 0.3 mg/kg/injection, schedule: Q01DX015 (ip), vehicle: carboxymethylcellulose (CMC)): 183 % of control | T/C (endpoint: survival time, mean or median, dose: 0.3 mg/kg/injection, schedule: Q01DX015 (ip), vehicle: saline): 95 % of control | T/C (endpoint: survival time, mean or median, dose: 0.45 mg/kg/injection, schedule: Q01DX015 (ip), vehicle: carboxymethylcellulose (CMC)): 102 % of control | T/C (endpoint: survival time, mean or median, dose: 0.8 mg/kg/injection, schedule: Q01DX001 (ip), vehicle: saline): 170 % of control | T/C (endpoint: survival time, mean or median, dose: 1.8 mg/kg/injection, schedule: Q01DX001 (ip), vehicle: saline): 153 % of control | T/C (endpoint: survival time, mean or median, dose: 4.3 mg/kg/injection, schedule: Q01DX001 (ip), vehicle: saline): 113 % of control | T/C (endpoint: survival time, mean or median, dose: 12.5 micrograms/kg/injection, schedule: Q01DX015 (ip), vehicle: carboxymethylcellulose (CMC)): 116 % of control | T/C (endpoint: survival time, mean or median, dose: 25.0 micrograms/kg/injection, schedule: Q01DX015 (ip), vehicle: carboxymethylcellulose (CMC)): 120 % of control | T/C (endpoint: survival time, mean or median, dose: 100.0 micrograms/kg/injection, schedule: Q01DX015 (ip), vehicle: carboxymethylcellulose (CMC)): 170 % of control | T/C (endpoint: survival time, mean or median, dose: 150.0 micrograms/kg/injection, schedule: Q01DX015 (ip), vehicle: saline): 158 % of control

CS(=O)(=O)OCCCCOS(C)(=O)=O
T/C [4]: 104 % of control and 118 % of control | T/C [5]: 86 % of control | T/C [6]: 86 % of control and 95 % of control | T/C [7]: 86 % of control and 95 % of control

Cn1c(N)nc2nc[nH]c2c1=S
T/C [1]: 106 % of control | T/C [2]: 100 % of control and 111 % of control | T/C [3]: 100 % of control | T/C (endpoint: survival time, mean or median, dose: 160.0 mg/kg/injection, schedule: Q01DX010 (ip), vehicle: saline): 100 % of control

CN(C)[C@@H]1C(=O)C(C(N)=O)=C(O)[C@@]2(O)C(=O)C3=C(O)c4c(O)cccc4C[C@H]3C[C@@H]12
T/C (endpoint: survival time, mean or median, dose: 30.0 mg/kg/injection, schedule: Q01DX015 (ip), vehicle: alkali diluted with saline): 117 % of control
